Reference: patent US10813939B2, “Bromodomain inhibitor as adjuvant in cancer immunotherapy” (H. LEE MOFFITT CANCER CENTER AND RESEARCH INSTITUTE, INC., priority 2014, dated 2020)
“Also recorded” adds a separate entry of the source.

Columns and labels:
Format in all cases: cell-based
PEM = PEM cell viability after 24 hours JQ1
Method: In order to determine the best working concentration of JQ1 in PEM, plated PEM (96-well plate) were treated with increased concentration of JQ1 for 24 hours then cell viability was determined. A threshold of 100 to 800 nanomolar was determined to be acceptable.

IL-10 [1] = test: IL-10 production by ELISA in PEM treated with JQ1 with and without LPS; details: PEM (PEM or bone marrow derived DCs), 24 hours, supernatant ELISA
Method: (§1) Macrophages (PEM) were treated with different concentrations of JQ1 in presence and absence of LPS (stimulant for macrophages). After 24 hours, supernatant was collected and IL -10 & IL-6 production was determined by ELISA.

IL-6 [2] = test: IL-6 production by ELISA in PEM treated with JQ1 with and without LPS; details: PEM (PEM or bone marrow derived DCs), 24 hours, supernatant ELISA
Method: as §1

IL-10 [3] = test: IL-10 mRNA expression by real time PCR in PEM; details: PEM or DCs, increasing JQ1, LPS stimulation
IL-6 [4] = test: IL-6 mRNA expression by real time PCR in PEM; details: PEM or DCs, increasing JQ1, LPS stimulation
PD-L1 [5] = test: Flow cytometry of PEM with anti-PD-L1; details: JQ1 & LPS versus LPS alone, treated versus untreated APCs
Method: (§2) PEM were treated with different concentrations of JQ1 in presence and absence of LPS. Flow cytometry was performed on PEM treated with different concentrations of JQ1 in presence and absence of LPS using anti-PD-Ll and anti-PD-L2 as well as isotype as a control.

PD-L2 = test: Flow cytometry of PEM with anti-PD-L2; details: JQ1 & LPS versus LPS alone
Method: as §2

PD-L1 [6] = test: PD-L1 mRNA expression by real time PCR in PEM; details: LPS+JQ1 combination
Naïve CD4 T-cells = test: JQ1-treated PEM co-cultured with naive CD4 T-cells and OVA peptide, cytokine ELISA; details: PEM treated 24 hours, co-culture 48 hours with OVA peptide
Method: (§3) PEM were treated with different concentrations of JQ1 in presence and absence of LPS. After 24 hours, PEM was washed twice with warm RPMI. Naïve CD4 T-cells or tolerant T-cells were added to the plated macrophages with or without OVA peptide and co-cultured for 48 hours. IL-2 and IFN-γ production were determined by ELISA. Without OVA peptide, there was no production of IL-2 or IFN-γ.

tolerant CD4+ T-cells = test: JQ1-treated PEM co-cultured with tolerant T-cells and OVA peptide, IFN-γ ELISA; details: PEM treated with JQ1+LPS 24 hours, co-culture 48 hours with OVA peptide, tolerant CD4+ T-cells from lymphoma bearing hosts
Method: as §3

**Q.** `Cc1sc2c(c1C)C(c1ccc(Cl)cc1)=N[C@@H](CC(=O)OC(C)(C)C)c1nnc(C)n1-2` [JQ1, (S)-tert-butyl 2-(4-(4-chlorophenyl)-2,3,9-trimethyl-6H-thieno[3,2-f][1,2,4]triazolo[4,3-a][1,4]diazepin-6-yl)acetate] was tested. Which “acceptable working concentration threshold (cell viability)” value (PEM; PEM, 96-well plate, 24 hours) did it give?
**A.** The value was 100 to 800 nM.

**Q.** What about the “viability of treated APCs” value (PEM; at the concentration used (FIG. 1)) of the same molecule?
**A.** Its value is “did not affect the viability”.

**Q.** What about the IL-10 production (IL-10 [1]) of the same molecule?
**A.** The IL-10 production was “decreased production”.

**Q.** What about the IL-10 production (IL-10 [1]; listed as JQ 1) of the same molecule?
**A.** The IL-10 production was “decreased expression and protein production”.

**Q.** And the IL-6 production (IL-6 [2])?
**A.** The IL-6 production was “decreased production”.

**Q.** And the IL-6 production (IL-6 [2]; listed as JQ 1)?
**A.** Its IL-6 production is “decreased expression and protein production”.

**Q.** And the “IL-10 expression (mRNA)” value (IL-10 [3])?
**A.** Its value is “decreased expression”.

**Q.** And the “IL-6 expression (mRNA)” value (IL-6 [4])?
**A.** The value was “decreased expression”.

**Q.** And the “PD-L1 expression (flow cytometry)” value (PD-L1 [5])?
**A.** Its value is “relatively decreased expression”.

**Q.** And the “PD-L1 expression (flow cytometry)” value (PD-L1 [5]; listed as JQ 1)?
**A.** The value was “decreased expression; also recorded: lower expression”.

**Q.** And the “PD-L2 expression (flow cytometry)” value (PD-L2)?
**A.** Its value is “relatively decreased expression”.

**Q.** What about the “PDL1 mRNA expression” value (PD-L1 [6]) of the same molecule?
**A.** Its value is “decreased expression”.

**Q.** What about the “IFN-gamma production by CD4 T-cell” value (Naïve CD4 T-cells) of the same molecule?
**A.** Its value is “increase in dose dependent production”.

**Q.** And the “IL-2 production by CD4 T-cell” value (Naïve CD4 T-cells)?
**A.** The value was “increase in dose dependent production”.

**Q.** What about the “IFN-gamma production by CD4 T-cell” value (Naïve CD4 T-cells; listed as JQ 1) of the same molecule?
**A.** Its value is “increased production”.

**Q.** And the “IL-2 production by CD4 T-cell” value (Naïve CD4 T-cells; listed as JQ 1)?
**A.** The value was “increased production”.

**Q.** And the “IFN-gamma production by tolerant T-cells / responsiveness of tolerant T-cells” value (tolerant CD4+ T-cells)?
**A.** The value was “enhanced IFN-gamma production; also recorded: restoration of tolerant T-cell function”.

**Q.** What about the “IFN-gamma production by tolerant T-cells / responsiveness of tolerant T-cells” value (tolerant CD4+ T-cells; listed as JQ 1) of the same molecule?
**A.** The value was “able to restore the responsiveness; also recorded: capable of restoring the responsiveness”.
